Laboratory results reported in publication PMC9826346, “One‐Pot Chemoenzymatic Synthesis of Microviridin Analogs Containing Functional Tags” (Chembiochem, 2022).
Bridge positions count the residues as written; N and C are the ends. Peptide text beside a SMILES is read from it. * marks the point of attachment. Biotin = O=C1N[C@H]2[C@H](CS[C@H]2CCCCC(=O)*)N1; Dansyl = CN(C)c1cccc2c(S(=O)(=O)*)cccc12; Propargyl = C#CC*

Key:
[1] = biological target: bovine trypsin (Bos taurus, UniProt P00760); assay: biochemical
Protocol: (§1) Protease inhibition assay: Microviridins were checked for their inhibitory activity against trypsin and elastase. Therefore, microviridin concentrations of 0.01 μM, 0.1 μM, 1 μM, 10 μM and 100 μM were tested. A sample without microviridin was used as control. As substrates N α‐Benzoyl‐DL‐arginine 4‐nitroanilide hydrochloride (BAPNA) was used for the trypsin assay and N‐Succinyl‐Ala‐Ala‐Ala‐p‐nitroanilide (Suc‐AAA‐pNA) for the elastase assays. The trypsin assay was performed with 16.7 μg/mL (approximately 42.7 U/mL) bovine trypsin (Carl Roth (Germany)) and 108.5 μg/mL BAPNA (Sigma‐Aldrich (Germany)) in 50 mM Tris‐HCl, 20 mM CaCl2, 0.5 % DMSO, pH 7.5. The elastase assay was performed with 50 μg/mL (250 mU/mL) porcine pancreas elastase (Sigma‐Aldrich (Germany) and 500 μg/mL Suc‐AAA‐pNA (Sigma‐Aldrich (Germany)) in 50 mM Tris‐HCl, 20 mM CaCl2, pH 7.5. All microviridins were dissolved in water to a concentration of 500 μM except of tricyclic MvB_CP_N(dansyl), which was dissolved in water containing 10 % DMSO. Before adding the substrate, each enzyme was incubated for 5 min with the respective inhibitor at room temperature. Afterwards, the substrate was added, and the assays were incubated for 15 min (elastase assay) and 30 min (trypsin assay) at 37 °C. The enzymatic activity was measured spectrophotometrically (Varioscan Flash, Thermo Scientific) at 410 nm. The assays were done twice for each sample. IC50 values were calculated using the Quest Graph™ IC50 Calculator.[21]

[2] = biological target: trypsin; details: read-out: KD for the interaction of trypsin and microviridin J; cited from earlier work
Source text: Naturally, microviridins act as competitive inhibitors that bind tightly to their corresponding proteases in a substrate‐like manner, for which turnover is excluded. […] Therefore, the chemical probes that show protease inhibition in the range of the unmodified microviridin derivatives could be expected to work as molecular tools. However, since the activity of dansylated microviridin B is clearly compromised (Table 1), the compound's affinity for elastase might not be strong enough for diagnos ...

[3] = tested on: Daphnia; details: microcrustaceans of the genus Daphnia; cited from earlier work
Source text: While the bioactivity and mode of action against mammalian serine proteases is well investigated for microviridins[[2a], [8]] and plesiocin,[9] their ecological roles and native targets remain elusive. […] However, neither specific protease targets could be identified, nor could a mode of action be specified. One hypothesis is based on the depletion of the amino acid pool essential for ...

[4] = biological target: porcine pancreas elastase (Sus scrofa, UniProt P00772); assay: biochemical
Protocol: as §1

Chain of bovine trypsin (P00760 24-246): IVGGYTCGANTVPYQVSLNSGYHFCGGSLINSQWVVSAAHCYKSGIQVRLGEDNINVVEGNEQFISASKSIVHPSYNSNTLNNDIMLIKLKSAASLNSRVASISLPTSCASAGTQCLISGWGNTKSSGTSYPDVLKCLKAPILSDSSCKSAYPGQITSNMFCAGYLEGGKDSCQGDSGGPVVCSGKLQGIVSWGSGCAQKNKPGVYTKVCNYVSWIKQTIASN
Chain of porcine pancreas elastase (P00772 27-266): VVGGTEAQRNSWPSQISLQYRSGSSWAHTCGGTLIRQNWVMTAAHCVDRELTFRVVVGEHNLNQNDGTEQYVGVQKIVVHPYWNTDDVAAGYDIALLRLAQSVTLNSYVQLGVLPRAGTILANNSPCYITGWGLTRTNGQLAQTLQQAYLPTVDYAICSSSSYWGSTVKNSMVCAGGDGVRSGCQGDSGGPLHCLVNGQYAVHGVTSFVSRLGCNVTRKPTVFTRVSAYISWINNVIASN

Row | Compound | IC50 [1] [nM] | IC50 [4] [nM] | other results
1 | CC[C@H](C)[C@H](N)C(=O)N[C@@H](CO)C(=O)N[C@@H]1C(=O)N[C@@H](CCCNC(=N)N)C(=O)N[C@H]2CCCCNC(=O)CC[C@@H](C(=O)N[C@@H](Cc3c[nH]c4ccccc34)C(=O)O)NC(=O)[C@@H]3CCC(=O)OC[C@H](NC(=O)[C@@H]4CCCN4C(=O)[C@H](Cc4ccc(O)cc4)NC2=O)C(=O)N[C@@H](CC(=O)O[C@@H]1C)C(=O)N[C@@H](Cc1c[nH]c2ccccc12)C(=O)N3 [MvJ_CPcy3 (1)] (H-ISTRKYPSDWEEW-OH; ester 3-9, 8-11; lactam 5-12) | 1090 ± 90 |  | 
2 | microviridin J |  |  | Kd [2]: 680 nM; Effect on Daphnia [3]: lethal molting disruption
3 | CC(C)C[C@@H]1NC(=O)[C@@H](NC(=O)[C@@H](NC(=O)CNC(=O)[C@H](Cc2ccccc2)NS(=O)(=O)c2cccc3c(N(C)C)cccc23)[C@@H](C)O)[C@@H](C)OC(=O)C[C@@H]2NC(=O)[C@@H]3COC(=O)CC[C@H](NC(=O)[C@H](Cc4c[nH]c5ccccc45)NC2=O)C(=O)N[C@H](C(=O)N[C@@H](Cc2ccc(O)cc2)C(=O)O)CCC(=O)NCCCC[C@H](NC1=O)C(=O)N[C@@H](Cc1ccc(O)cc1)C(=O)N1CCC[C@H]1C(=O)N3 [MvB_CP_N(Dansyl)cy3 (6)] (Dansyl-FGTTLKYPSDWEEY-OH; ester 4-10, 9-12; lactam 6-13) |  | 28000 ± 7170 | 
4 | C#CCOc1ccc(C[C@H](N)C(=O)N[C@H](C(=O)N[C@@H](CO)C(=O)N[C@@H]2C(=O)N[C@@H](CCCNC(=N)N)C(=O)N[C@H]3CCCCNC(=O)CC[C@@H](C(=O)N[C@@H](Cc4c[nH]c5ccccc45)C(=O)O)NC(=O)[C@@H]4CCC(=O)OC[C@H](NC(=O)[C@@H]5CCCN5C(=O)[C@H](Cc5ccc(O)cc5)NC3=O)C(=O)N[C@@H](CC(=O)O[C@@H]2C)C(=O)N[C@@H](Cc2c[nH]c3ccccc23)C(=O)N4)[C@@H](C)CC)cc1 [MvJ_CP_N(Prop)cy3 (3)] (H-Y(Propargyl)ISTRKYPSDWEEW-OH; ester 4-10, 9-12; lactam 6-13) | 1640 ± 120 |  | 
5 | CC(C)C[C@@H]1NC(=O)[C@@H](NC(=O)[C@@H](NC(=O)CNC(=O)[C@@H](N)Cc2ccccc2)[C@@H](C)O)[C@@H](C)OC(=O)C[C@@H]2NC(=O)[C@@H]3COC(=O)CC[C@H](NC(=O)[C@H](Cc4c[nH]c5ccccc45)NC2=O)C(=O)N[C@H](C(=O)N[C@@H](Cc2ccc(O)cc2)C(=O)O)CCC(=O)NCCCC[C@H](NC1=O)C(=O)N[C@@H](Cc1ccc(O)cc1)C(=O)N1CCC[C@H]1C(=O)N3 [MvB_CPcy3 (4)] (H-FGTTLKYPSDWEEY-OH; ester 4-10, 9-12; lactam 6-13) |  | 330 ± 20 | 
6 | CC(C)C[C@@H]1NC(=O)[C@@H](NC(=O)[C@@H](NC(=O)CNC(=O)[C@H](Cc2ccccc2)NC(=O)[C@@H](N)CCCCNC(=O)CCCC[C@@H]2SC[C@@H]3NC(=O)N[C@@H]32)[C@@H](C)O)[C@@H](C)OC(=O)C[C@@H]2NC(=O)[C@@H]3COC(=O)CC[C@H](NC(=O)[C@H](Cc4c[nH]c5ccccc45)NC2=O)C(=O)N[C@H](C(=O)N[C@@H](Cc2ccc(O)cc2)C(=O)O)CCC(=O)NCCCC[C@H](NC1=O)C(=O)N[C@@H](Cc1ccc(O)cc1)C(=O)N1CCC[C@H]1C(=O)N3 [MvB_CP_N(Bio)cy3 (5)] (H-K(Biotin)FGTTLKYPSDWEEY-OH; ester 5-11, 10-13; lactam 7-14) |  | 1240 ± 640 | 
7 | CC[C@H](C)[C@H](NC(=O)[C@@H](N)CCCCNC(=O)CCCC[C@@H]1SC[C@@H]2NC(=O)N[C@@H]21)C(=O)N[C@@H](CO)C(=O)N[C@@H]1C(=O)N[C@@H](CCCNC(=N)N)C(=O)N[C@H]2CCCCNC(=O)CC[C@@H](C(=O)N[C@@H](Cc3c[nH]c4ccccc34)C(=O)O)NC(=O)[C@@H]3CCC(=O)OC[C@H](NC(=O)[C@@H]4CCCN4C(=O)[C@H](Cc4ccc(O)cc4)NC2=O)C(=O)N[C@@H](CC(=O)O[C@@H]1C)C(=O)N[C@@H](Cc1c[nH]c2ccccc12)C(=O)N3 [MvJ_CP_N(Bio)cy3 (2)] (H-K(Biotin)ISTRKYPSDWEEW-OH; ester 4-10, 9-12; lactam 6-13) | 3530 ± 300 |  | 
